How the values were obtained:
Format in all cases: cell-based
Settings in all cases: after 10, 20, 40 and 60 minutes at all dilutions 1:100, 1:200, 1:400, and 1:800
Staphylococcus aureus = experiment: Antimicrobial activity by agar dilution, St. Aereus
Procedure: (§1) The antibacterial properties of the synthesized compound (12-bromo-2,16-dioxa-9,9,18,18-tetramethylpentacyclo[7.7.5.0^1,21.0^3,8.0^10,15]henicosa3(8),10,12,14-tetraene-7,20-dione) were studied by the method of agar dilution. Test solutions of each compound was prepared in concentration of 1% using dimethylformamide as a solvent. Then they were diluted in physiological solution to obtain the final experimental dilutions of 1:100, 1:200, 1:400, and 1:800. The effect of these substances were compared with furacillin in a controllable study. The testing microbes used were gram positive bacteria Staphylococcus aureus, gram negative bacteria Pseudomonas aeruginosa, Escherichia coli, and Candida albicans fungus. The experiments used for this survey were meat-pentonlu agar (EPA) for cultivation of bacteria and Saburo environment for fungi. Each experiment used 1 mL of test solution on each plate for 500 minutes. Two drops of emulsified with microbes feel were added. All experimental samples were taken from the agar after 10, 20, 40, 60 minutes in the environment on the basis of Patrk planted. Bacteria were cultivated at a temperature of 37° C. for 1 day and the mushroom was kept in a thermostat for 2 hours at a temperature of 28° C. Then results were checked. […]

Escherichia coli = experiment: Antimicrobial activity by agar dilution, E. Coli
Procedure: as §1

Pseudomonas aeruginosa = experiment: Antimicrobial activity by agar dilution, Ps. aeruginosa
Procedure: as §1

Candida albicans = experiment: Antimicrobial (antifungal) activity by agar dilution, Candida albicans
Procedure: as §1

Measured: inhibition activity compared with the inhibition activity of Furacilin

CC1(C)CC(=O)C2=C(C1)OC13CC(C)(C)CC(=O)C1C2c1cc(Br)ccc1O3 (stereo not shown) [12-bromo-2,16-dioxa-9,9,18,18-tetramethylpentacyclo[7.7.5.0^1,21.0^3,8.0^10,15]henicosa3(8),10,12,14-tetraene-7,20-dione]
higher inhibition activity: all assays above

From patent US11952385B1, “12-bromo-2,16-dioxa-9,9,18,18-tetramethylpentacyclo[7.7.5.0 1, 21.0 3,8.0 10,15]henicosa3(8),10,12,14-tetraene-7,20-dione as an antimicrobial compound” (KING FAISAL UNIVERSITY, priority 2023, dated 2024)
